Measured values reported in US20150267174A1, “REPROGRAMMING PEPTIDE AND USE THEREOF” (priority 2012, published 2015).
Square brackets hold non-standard residues; d marks the D form. Cysamide = C-terminal cysteamide

Legend:
Type in all cases: cell-based
[1] = tested on: Human adult fibroblast strain TIG113; assay: Spheroid formation after reverse transfection of peptide into fibroblasts; conditions: for degree of spheroid formation: number of ES cell colony-like spheroids, peptide 30 μg/well solid-phased on 12 well plate, 2×10^4 cells seeded, measured 7-10 days later; for spheroid formation ability (in words): reverse transfection, TIG113
Method: Human adult fibroblast strain TIG113 was cultured in a medium mainly containing 10% fetal bovine serum-containing EMEM under humidified conditions at 37° C. and 5% CO2 until it reached 1×10^7 cells. A plate for reverse transfection was prepared by applying each peptide shown in Table 1 to each well of a 12 well plate at a concentration of 30 μg/well, and forming a solid phase by air-drying. Grown TIG113 was washed with CMF-PBS, and incubated in 0.25% trypsin solution at 37° C. for 10-15 min to dissociate the cells. Centrifugation and washing with PBS were repeated twice and the cells were suspended in iPS medium (manufactured by ReproCELL Incorporated). Using the cell suspension, human fibroblast was seeded at 2×10^4 cells on a plate for reverse transfection. As a reverse transfection medium, an iPS medium containing 10% fetal bovine serum and not containing bFGF was used. The number of ES colony-like spheroids formed was measured 7-10 days later, and the spheroid formation degree was evaluated (Table 1). In an experiment using the peptides of H11, H16, and H29, the ratio of the cells forming spheroid was calculated.

[2] = tested on: Human adult fibroblast strain TIG113; assay: Marker expression (immunostaining, alkaline phosphatase staining) of spheroid cells
Method: The pluripotent spheroid cell obtained in Example 1, by introducing a reprogramming peptide into differentiated cell, was examined for undifferentiation, expression of nerve marker and the like.
Using the H11 peptide shown in Table 1, the cells were made to form spheroid according to the method shown in Example 1, and incubated in 1% H2O2 containingmethanol at room temperature for 5 min to immobilize the cells. The cells were washed five times with PBS, and blocked with PBS containing 5% FBS/0.05% gelatin/3% skim milk/1% BSA (hereinafter Block Ace) at room temperature for 1-2 hr. Furthermore, the cells were reacted at room temperature for 2 hr with the primary antibody shown in Table 2 and appropriately diluted with Block Ace. The cells were washed five times with PBS, and the HPR-labeled secondary antibody was appropriately diluted with Block Ace and reacted at room temperature for 1 hr. Lastly, the cells were washed five times with PBS, and the antigen was visualized according to the protocol of Peroxidase Stain DAB Kit &enhancer (Nacalai Tesque).
For alkaline phosphatase staining, the cells immobilized by the aforementioned method were incubated at room temperature for 30 min using BCIP/NBT Color Development Substrate (Promega). The reaction was quenched by washing five times with PBS.

BHK21 = assay: Spheroid formation and marker staining in various cells
Source text: (§1) By a method similar to that of Example 1, H11 peptide was introduced into BHK21, A549, H293 cell, mouse feeder cell (COSMO BIO co., ltd.: RCHEFC003), bovine vascular endothelial cell (TOYOBO CO., LTD.: CAB300K05), and swine vascular endothelial cell (TOYOBO CO., LTD.: CAP300K05).

mouse feeder cell = assay: as above
Source text: as §1

[3] = tested on: bovine vascular endothelial cell; assay: as above
Source text: as §1

A549 = assay: as above
Source text: as §1

[4] = tested on: swine vascular endothelial cell; assay: as above
Source text: as §1

H293 cell = assay: as above
Source text: as §1

[5] = tested on: human fibroblast (manufactured by KURABO INDUSTRIES LTD.); assay: Spheroid formation and marker expression using human adult fibroblast
Source text: Using a method similar to that of Example 1, H11 peptide was introduced into human fibroblast (manufactured by KURABO INDUSTRIES LTD.).
The prepared spheroid was subjected to expression analysis of pluripotency marker and differentiation marker according to the method of Example 2. As a result, it was positive to pluripotency markers of alkaline phosphatase, SSEA-3, TRA-1-61, Oct3/4, Sox2, and Nanog. Furthermore, the expression of neural stem cell marker nestin, nerve marker neurofilament 160, βIII tubulin, MAP2, and GFAP was confirmed by continuous culture. Furthermore, the expression of insulin producing cell marker proinsulin, and C-peptide was also confirmed.

[6] = tested on: Human adult fibroblast strain TIG113; assay: CD105/CD146/CD31 antibody staining of spheroid cells
Method: The pluripotent spheroid cell obtained in Example 1 by introducing a reprogramming peptide into a differentiated cell was examined for undifferentiation, and expressions of nerve marker and the like.
Using the H11 peptide shown in Table 1, the cells were made to form spheroid according to the method shown in Example 1 and incubated using 1% H2O2-containing methanol at room temperature for 5 min, and immobilized.
Using the antibody described in Table 3, cells were stained according to a package insert. As the secondary antibody, HRP-labeled goat anti-mouse IgG antibody (manufactured by Promega KK, Goat Anti-Mouse IgG (H+L), HRP Conjugate) was used.

Substance: Ac-GALFLGFLGAAGSTMGAWSQGKKRSKA-Cysamide [H29]
- degree of spheroid formation [1]: +++ (+++ about 50-100)
- spheroid formation ability (in words) [1]: has spheroid formation ability

Substance: Ac-GALFLGFLGAAGSTMGAWSQPKSKRKV-Cysamide [H6]
- degree of spheroid formation [1]: + (+ about −10)

Substance: GALFLGFLGAAGSTMGAmSQPKSKRKV (GALFLGFLGAAGSTMGAMSQPKSKRKV; not fully specified; D-Met; Reprogramming peptide) [H5]
- degree of spheroid formation [1]: + (+ about −10)

Substance: Ac-PKKKRKV-Cysamide [H18, SV40 Large T antigen NLS]
- spheroid formation ability (in words) [1]: Spheroid is not formed

Substance: Ac-RQIKIWFQNRRMKWKKWSQGKKRSKA-Cysamide [H31]
- degree of spheroid formation [1]: + (+ about −10)

Substance: Ac-GALFLGFLGAAGSTMGA/WSQ/RSRKYTSWYVALKR-Cysamide (Ac-GALFLGFLGAAGSTMGAWSQRSRKYTSWYVALKR-Cysamide) [H37]
- degree of spheroid formation [1]: +++ (+++ about 50-100)

Substance: GALFLGFLGAAGSTMGAWSQPKSKRKV (Reprogramming peptide) [H1]
- degree of spheroid formation [1]: ++ (++ about 10-50)

Substance: Ac-GALFLGFLGAAGSTMGAmSQPKSKRKV-Cysamide (Ac-GALFLGFLGAAGSTMGA[dM]SQPKSKRKV-Cysamide) [H10]
- degree of spheroid formation [1]: + (+ about −10)

Substance: Ac-GALFLGFLGAAGSTMGA/WSQ/KKRTLRKNDRKKR-Cysamide (Ac-GALFLGFLGAAGSTMGAWSQKKRTLRKNDRKKR-Cysamide) [H36]
- degree of spheroid formation [1]: +++ (+++ about 50-100)

Substance: Ac-GALFLGFLGAAGSTMGAWSQPKKKRKV-Cysamide [H11]
- expression of pluripotent markers alkaline phosphatase, Oct3/4, Sox2, Nanog, SSEA-3, Tra-1-81 ([2]; spheroid cells from TIG113): express
- expression of proinsulin and C-peptide (insulin producing cell markers) ([2]; spheroid cells from TIG113): confirmed
- expression of nestin, neurofilament 160, βIII tubulin, MAP2, GFAP ([2]; when the culture period becomes long): confirmed
- alkaline phosphatase, SSEA-3 staining (BHK21): positive
- spheroid formation (BHK21): formed spheroids
- alkaline phosphatase, SSEA-3 staining (mouse feeder cell): positive
- spheroid formation (mouse feeder cell): formed spheroids
- alkaline phosphatase, SSEA-3 staining [3]: positive
- spheroid formation [3]: formed spheroids
- alkaline phosphatase, SSEA-3 staining (A549): positive
- spheroid formation (A549): formed spheroids
- alkaline phosphatase, SSEA-3 staining [4]: positive
- spheroid formation [4]: formed spheroids
- alkaline phosphatase, SSEA-3 staining (H293 cell): positive
- spheroid formation (H293 cell): formed spheroids
- expression of alpha-fetoprotein and albumin [5]: confirmed
- expression of proinsulin and C-peptide [5]: confirmed
- oil red O staining [5]: differentiation into adipose tissue was found
- expression of nestin, neurofilament 160, βIII tubulin, MAP2, GFAP ([5]; continuous culture): confirmed
- spheroid formation ([5]; human fibroblast (KURABO)): finally formed spheroid
- pluripotency markers alkaline phosphatase, SSEA-3, TRA-1-61, Oct3/4, Sox2, Nanog ([5]; prepared spheroid): positive
- degree of spheroid formation [1]: +++ (+++ about 50-100)
- mesenchymal stem cell marker CD105 [6]: positive
- pericyte marker CD146 [6]: positive
- vascular endothelial cell marker CD31 [6]: negative

Substance: Ac-GALFLGFLGAAGSTMGA-Cysamide [H13]
- spheroid formation ability (in words) [1]: no spheroid formation ability
